Source: ChEMBL document CHEMBL5728698, “Pyrrolo[1,2-b]pyridazine derivatives” (2021)
pIC50: −log10 of the molar value.

Target: T1, Interleukin-1 receptor-associated kinase 4 (Homo sapiens, UniProt Q9NWZ3)
T1 sequence (Q9NWZ3 whole entry): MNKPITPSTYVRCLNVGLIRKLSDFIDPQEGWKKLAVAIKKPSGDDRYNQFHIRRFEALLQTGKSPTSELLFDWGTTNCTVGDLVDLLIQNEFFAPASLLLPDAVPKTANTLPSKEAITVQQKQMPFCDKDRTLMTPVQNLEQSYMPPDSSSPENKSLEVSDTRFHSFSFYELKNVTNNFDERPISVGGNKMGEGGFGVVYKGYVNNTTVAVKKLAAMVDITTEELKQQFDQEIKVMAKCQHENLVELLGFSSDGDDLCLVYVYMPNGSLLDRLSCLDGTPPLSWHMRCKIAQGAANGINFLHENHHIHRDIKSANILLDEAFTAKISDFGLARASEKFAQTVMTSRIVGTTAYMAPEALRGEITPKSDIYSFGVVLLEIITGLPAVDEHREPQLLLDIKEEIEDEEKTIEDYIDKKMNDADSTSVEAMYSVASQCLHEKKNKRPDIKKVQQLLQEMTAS
Assay: IRAK4 Biochemical Assay: IRAK4 enzyme (Carna Biosciences, Chuo-ku, Kobe, Japan) activity was measured by detecting phosphorylated peptide substrate formation using an antibody against the phosphorylated peptide substrate. This is a time-resolved fluorescence resonance energy transfer (TR-FRET) immunoassay, based on the STK1 KinEASE Assay (Cisbio, Bedford, Mass.). The assay was designed as a simple two-step, endpoint assay (a 5 μl enzyme reaction followed by 5 μl stop and detect Solution) performed in ProxiPlate-384 Plus plates (Perkin Elmer, Waltham, Mass.). Staurosporine, a non-selective kinase inhibitor was used as a positive control. Compounds diluted in DMSO were spotted into 384 well plates using a Labcyte® Echo 550 Liquid Handling System prior to addition of IRAK4 enzyme and peptide substrate. Reaction solutions were delivered using a Multi-Flo (Bio-Tek Instruments). The enzyme and peptide solution was incubated with compound for 15 minutes at room temp before the reaction was initiated by the addition of ATP. The standard 5 μl reaction mixture contained 500 μM ATP, 2 μM peptide (STK1 Peptide), 0.75 nM of IRAK4 in reaction buffer (50 mM HEPES, pH 7.0, 0.02% NaN3, 0.01% BSA, 0.1 mM Orthovanadate, 5 mM MgCl2, 0.025% NP-40, 1 mM DTT). […]

**Q.** With `COC(=O)NC[C@H]1C[C@H](Nc2cc(-c3ccc4cc(C#N)cnn34)ncc2-c2cn([C@H]3CC[C@H](NC(=O)N4CCOCC4)CC3)nn2)C1` as the molecule, how does the pIC50 read?
**A.** > 9.00
